Counter-ions that a name gives are not always drawn.
Each compound was assayed on ATGL-KO iPSCs (assay: High throughput iPSC chemical screening, Oil Red O (ORO) lipid accumulation). Settings: glycolytic switch compounds.
Format: cell-based, mouse
Throughout, for Z-score: test concentration or dose not given here.

For `Clc1ccc(CSC(Cn2ccnc2)c2ccc(Cl)cc2Cl)cc1` (stereo not shown) [Sulconazole nitrate], which “Rank in normalized ORO score from screen” value is on record?
The value was 372.

How did the “Rank in normalized ORO score from screen” value turn out when `CC/C(=C(\c1ccccc1)c1ccc(OCCN(C)C)cc1)c1ccccc1` [Tamoxifen citrate] was run?
The value was 130.

How did the “Rank in normalized ORO score from screen” value turn out when `CCC(=O)O[C@H]1CC[C@H]2[C@@H]3CCC4=CC(=O)CC[C@]4(C)[C@H]3CC[C@]12C` [Testosterone propionate] was run?
The value was 857.

Same assay, conditions: normalized ORO level vs DMSO-treated cells; compound present during 7 days differentiation, 96-well; negative = decrease in lipid accumulation

`CN[C@@H]1[C@@H](O)[C@@H](O[C@@H]2[C@@H](O)[C@H](O[C@H]3OC(CN)=CC[C@H]3N)[C@@H](N)C[C@H]2N)OC[C@]1(C)O` [Sisomicin sulfate] was tested. Which Z-score did it give?
Its Z-score is −0.7041.

`COc1ccc2c(OC)c3ccoc3nc2c1OC` [Skimmianine] was tested. Which Z-score did it give?
Its Z-score is −1.2252.

Which Z-score does the source give for `C[C@@H]1CC[C@@]2(NC1)O[C@H]1C[C@H]3[C@@H]4CC=C5C[C@@H](O)CC[C@]5(C)[C@H]4CC[C@]3(C)[C@H]1[C@@H]2C` [Solasodine] here?
The Z-score was −0.5386.

`CC(C)NCC(O)c1ccc(NS(C)(=O)=O)cc1` (stereo not shown) [Sotalol hydrochloride] was tested. Which Z-score did it give?
Its Z-score is 0.2363.

How did the Z-score turn out when `CC(=O)N[C@@H](CC(=O)N[C@@H](CCC(=O)O)C(=O)O)C(=O)O` [Spaglumic acid] was run?
The Z-score was 0.9666.

With `C1CCN2C[C@@H]3C[C@@H](CN4CCCC[C@@H]34)[C@H]2C1` [Sparteine (−)] as the compound, how does the Z-score read?
Its Z-score is −0.3524.

Which Z-score does the source give for `CN[C@@H]1[C@H](O)[C@H](NC)[C@H]2O[C@@]3(O)C(=O)C[C@@H](C)O[C@H]3O[C@@H]2[C@H]1O` [Spectinomycin dihydrochloride] here?
The Z-score was −0.1287.

`O=C(CCCN1CCC2(CC1)C(=O)NCN2c1ccccc1)c1ccc(F)cc1` [Spiperone] was tested. Which Z-score did it give?
The Z-score was −1.6819.

How did the Z-score turn out when `CC(=O)S[C@@H]1CC2=CC(=O)CC[C@]2(C)[C@H]2CC[C@@]3(C)[C@@H](CC[C@@]34CCC(=O)O4)[C@H]12` [Spironolactone] was run?
Its Z-score is −1.7632.

With `C[N+]1(C)CCC[C@H]1C(=O)[O-].Cl` [Stachydrine hydrochloride] as the compound, how does the Z-score read?
The Z-score was 0.2248.

`[H]/N=C(/N)N[C@H]1[C@H](O)[C@@H](O)[C@H](O[C@@H]2O[C@@H](C)[C@](O)(C=O)[C@H]2O[C@@H]2O[C@@H](CO)[C@H](O)[C@@H](O)[C@@H]2NC)[C@@H](N/C(N)=N\[H])[C@@H]1O` [Streptomycin sulfate] was tested. Which Z-score did it give?
The Z-score was 1.417.

`C[C@]12CC[C@H]3[C@@H](CC[C@]4(O)C[C@@H](O)CC[C@]34C=O)[C@@]1(O)CC[C@@H]2C1=CC(=O)OC1` [Strophanthidin] was tested. Which Z-score did it give?
Its Z-score is 0.6732.

`C[C@@H]1O[C@@H](O[C@H]2C[C@@H](O)[C@]3(CO)[C@H]4[C@H](O)C[C@]5(C)[C@@H](C6=CC(=O)OC6)CC[C@]5(O)[C@@H]4CC[C@]3(O)C2)[C@H](O)[C@H](O)[C@H]1O.O.O.O.O.O.O.O.O` [Strophantine octahydrate] was tested. Which Z-score did it give?
Its Z-score is 3.188.

With `O=C(O)CCC(=O)Nc1ccc(S(=O)(=O)Nc2nccs2)cc1` [Succinylsulfathiazole] as the compound, how does the Z-score read?
The Z-score was 1.139.

With `Clc1ccc(CSC(Cn2ccnc2)c2ccc(Cl)cc2Cl)cc1` (stereo not shown) [Sulconazole nitrate] as the compound, how does the Z-score read?
The Z-score was −0.6576.

Which Z-score does the source give for `Nc1ccc(S(=O)(=O)NC(=O)c2ccccc2)cc1` [Sulfabenzamide] here?
The Z-score was 1.96.

Which Z-score does the source give for `CC(=O)[N-]S(=O)(=O)c1ccc(N)cc1.O.[Na+]` [Sulfacetamide sodic hydrate] here?
The Z-score was −0.3059.

`Nc1ccc(S(=O)(=O)Nc2ccc(Cl)nn2)cc1` [Sulfachloropyridazine] was tested. Which Z-score did it give?
The Z-score was 1.134.

Which Z-score does the source give for `Nc1ccc(S(=O)(=O)Nc2ncccn2)cc1` [Sulfadiazine] here?
The Z-score was 0.09783.

For `COc1cc(NS(=O)(=O)c2ccc(N)cc2)nc(OC)n1` [Sulfadimethoxine], which Z-score is on record?
Its Z-score is 0.4077.

With `COc1ncnc(NS(=O)(=O)c2ccc(N)cc2)c1OC` [Sulfadoxine] as the compound, how does the Z-score read?
Its Z-score is −0.1202.

`[H]/N=C(/N)NS(=O)(=O)c1ccc(N)cc1` [Sulfaguanidine] was tested. Which Z-score did it give?
Its Z-score is 1.05.

For `Cc1ccnc(NS(=O)(=O)c2ccc(N)cc2)n1` [Sulfamerazine], which Z-score is on record?
The Z-score was −0.0984.

With `COc1cnc(NS(=O)(=O)c2ccc(N)cc2)nc1` [Sulfameter] as the compound, how does the Z-score read?
The Z-score was −0.1501.

`Cc1cc(C)nc(NS(=O)(=O)c2ccc(N)cc2)n1` [Sulfamethazine sodium salt] was tested. Which Z-score did it give?
Its Z-score is 1.431.

For `Cc1nnc(NS(=O)(=O)c2ccc(N)cc2)s1` [Sulfamethizole], which Z-score is on record?
Its Z-score is −0.7734.

`Cc1cc(NS(=O)(=O)c2ccc(N)cc2)no1` [Sulfamethoxazole] was tested. Which Z-score did it give?
Its Z-score is −0.4061.

How did the Z-score turn out when `COc1ccc(NS(=O)(=O)c2ccc(N)cc2)nn1` [Sulfamethoxypyridazine] was run?
Its Z-score is −0.0234.

How did the Z-score turn out when `COc1cc(NS(=O)(=O)c2ccc(N)cc2)ncn1` [Sulfamonomethoxine] was run?
The Z-score was −1.3171.

Which Z-score does the source give for `Nc1ccc(S(N)(=O)=O)cc1` [Sulfanilamide] here?
Its Z-score is 0.2959.

Which Z-score does the source give for `Nc1ccc(S(=O)(=O)Nc2ccnn2-c2ccccc2)cc1` [Sulfaphenazole] here?
Its Z-score is −0.2854.

For `Nc1ccc(S(=O)(=O)Nc2ccccn2)cc1` [Sulfapyridine], which Z-score is on record?
Its Z-score is 0.5256.

Which Z-score does the source give for `Nc1ccc(S(=O)(=O)Nc2cnc3ccccc3n2)cc1` [Sulfaquinoxaline sodium salt] here?
Its Z-score is 0.579.

Which Z-score does the source give for `O=C(O)c1cc(/N=N/c2ccc(S(=O)(=O)Nc3ccccn3)cc2)ccc1O` [Sulfasalazine] here?
The Z-score was −1.0569.

Which Z-score does the source give for `Nc1ccc(S(=O)(=O)Nc2nccs2)cc1` [Sulfathiazole] here?
The Z-score was 0.1226.

Which Z-score does the source give for `O=C1C(CC[S+]([O-])c2ccccc2)C(=O)N(c2ccccc2)N1c1ccccc1` (stereo not shown) [Sulfinpyrazone] here?
The Z-score was −1.4016.

How did the Z-score turn out when `Cc1noc(NS(=O)(=O)c2ccc(N)cc2)c1C` [Sulfisoxazole] was run?
Its Z-score is −0.0512.

For `CC1=C(CC(=O)O)c2cc(F)ccc2/C1=C\c1ccc([S+](C)[O-])cc1` (stereo not shown) [Sulindac], which Z-score is on record?
The Z-score was 1.451.

`COc1cc([S+](C)[O-])ccc1-c1nc2ncccc2[nH]1` (stereo not shown) [Sulmazole] was tested. Which Z-score did it give?
The Z-score was 0.4097.

With `CCCCCCCCNC(C)C(O)c1ccc(SC(C)C)cc1` (stereo not shown) [Suloctidil] as the compound, how does the Z-score read?
Its Z-score is 21.8147.

Which Z-score does the source give for `CCN1CCCC1CNC(=O)c1cc(S(N)(=O)=O)ccc1OC` (stereo not shown) [Sulpiride] here?
Its Z-score is −0.2187.

For `CC(C(=O)O)c1ccc(C(=O)c2cccs2)cc1` (stereo not shown) [Suprofen], which Z-score is on record?
Its Z-score is −0.7501.

How did the Z-score turn out when `CCCCC1(COC(=O)CCC(=O)O)C(=O)N(c2ccccc2)N(c2ccccc2)C1=O` [Suxibuzone] was run?
The Z-score was −1.3282.

`CCOC(=O)Oc1c(OC)cc(C(=O)O[C@@H]2C[C@@H]3CN4CCc5c([nH]c6cc(OC)ccc56)[C@H]4C[C@@H]3[C@H](C(=O)OC)[C@H]2OC)cc1OC` [Syrosingopine] was tested. Which Z-score did it give?
Its Z-score is 0.3519.

With `Cl.O=c1[nH]oc2c1CCNC2` [THIP Hydrochloride] as the compound, how does the Z-score read?
Its Z-score is −1.3776.

With `Nc1c2c(nc3ccccc13)CCCC2` [Tacrine hydrochloride hydrate] as the compound, how does the Z-score read?
Its Z-score is −2.143.

With `CC1(C)S[C@@H]2[C@H](NC(=O)[C@H](N)c3ccccc3)C(=O)N2[C@H]1C(=O)OC1OC(=O)c2ccccc21` (stereo partly shown) [Talampicillin hydrochloride] as the compound, how does the Z-score read?
The Z-score was −0.9508.

Which Z-score does the source give for `CC/C(=C(\c1ccccc1)c1ccc(OCCN(C)C)cc1)c1ccccc1` [Tamoxifen citrate] here?
The Z-score was −1.1882.

`Cc1scc2c1N(C(=O)CN1CCN(C)CC1)c1ccccc1NC2=O` [Telenzepine dihydrochloride] was tested. Which Z-score did it give?
The Z-score was 0.2257.

How did the Z-score turn out when `CN1C(C(=O)Nc2ccccn2)=C(O)c2sccc2S1(=O)=O` [Tenoxicam] was run?
The Z-score was −0.5016.

Which Z-score does the source give for `COc1cc2nc(N3CCN(C(=O)C4CCCO4)CC3)nc(N)c2cc1OC` (stereo not shown) [Terazosin hydrochloride] here?
Its Z-score is −0.0723.

Which Z-score does the source give for `CC(C)N1CCN(c2ccc(OCC3COC(Cn4cncn4)(c4ccc(Cl)cc4Cl)O3)cc2)CC1` (stereo not shown) [Terconazole] here?
The Z-score was −0.3786.

`CC(C)(C)c1ccc(C(O)CCCN2CCC(C(O)(c3ccccc3)c3ccccc3)CC2)cc1` (stereo not shown) [Terfenadine] was tested. Which Z-score did it give?
The Z-score was −0.8896.

Which Z-score does the source give for `CCC(=O)O[C@H]1CC[C@H]2[C@@H]3CCC4=CC(=O)CC[C@]4(C)[C@H]3CC[C@]12C` [Testosterone propionate] here?
Its Z-score is 0.7489.

With `CCCCNc1ccc(C(=O)OCCN(C)C)cc1.Cl` [TetracaOne hydrochloride] as the compound, how does the Z-score read?
The Z-score was −0.5979.

For `CN(C)[C@@H]1C(O)=C(C(N)=O)C(=O)[C@@]2(O)C(O)=C3C(=O)c4c(O)cccc4[C@@](C)(O)[C@H]3C[C@@H]12` [Tetracycline hydrochloride], which Z-score is on record?
The Z-score was −0.2579.

With `O.O=C1C(O)=C(O)C(=O)C(O)=C1O` [Tetrahydroxy-1,4-quinone monohydrate] as the compound, how does the Z-score read?
The Z-score was −1.5885.

For `c1ccc2c(c1)CCCC2C1=NCCN1` (stereo not shown) [Tetrahydrozoline hydrochloride], which Z-score is on record?
Its Z-score is −0.9102.

How did the Z-score turn out when `c1ccc(C2CN3CCSC3=N2)cc1` (stereo not shown) [Tetramisole hydrochloride] was run?
Its Z-score is 0.1333.

For `COc1ccc2cc1Oc1ccc(cc1)C[C@H]1c3cc(c(OC)cc3CCN1C)Oc1c(OC)c(OC)cc3c1[C@H](C2)N(C)CC3` [Tetrandrine], which Z-score is on record?
The Z-score was −1.1905.

`O=C1CCC(N2C(=O)c3ccccc3C2=O)C(=O)N1` (stereo not shown) [Thalidomide] was tested. Which Z-score did it give?
Its Z-score is −1.026.

Which Z-score does the source give for `Cn1cnc2c1c(=O)[nH]c(=O)n2C` [Theobromine] here?
The Z-score was 0.09359.

How did the Z-score turn out when `Cn1c(=O)c2[nH]cnc2n(C)c1=O.O` [Theophylline monohydrate] was run?
Its Z-score is 0.7001.

With `Cc1ncc(C[n+]2csc(CCO)c2C)c(N)n1` [Thiamine hydrochloride] as the compound, how does the Z-score read?
Its Z-score is 1.576.

Which Z-score does the source give for `CS(=O)(=O)c1ccc([C@@H](O)[C@@H](CO)NC(=O)C(Cl)Cl)cc1` [Thiamphenicol] here?
The Z-score was 16.8903.

`COc1c(O[C@@H]2O[C@H](CO)[C@@H](O)[C@H](O)[C@H]2O)cc2c(c1OC)-c1ccc(SC)c(=O)cc1[C@@H](NC(C)=O)CC2` [Thiocolchicoside] was tested. Which Z-score did it give?
Its Z-score is 11.5611.

With `S=C(NC1CCCCC1)N1CCC(c2cnc[nH]2)CC1` [Thioperamide maleate] as the compound, how does the Z-score read?
The Z-score was −0.6114.

For `CSc1ccc2c(c1)N(CCC1CCCCN1C)c1ccccc1S2` (stereo not shown) [Thioridazine hydrochloride], which Z-score is on record?
The Z-score was −1.1212.

How did the Z-score turn out when `O=C(O)CNC(=O)C(CS)Cc1ccccc1` (stereo not shown) [Thiorphan] was run?
The Z-score was 1.245.

`C=C(NC(=O)C(=C)NC(=O)c1csc(C2=N[C@@H]3c4csc(n4)[C@H]4NC(=O)c5csc(n5)[C@H]([C@](C)(O)[C@@H](C)O)NC(=O)[C@H]5CSC(=N5)/C(=C/C)NC(=O)[C@H]([C@@H](C)O)NC(=O)c5csc(n5)[C@]3(CC2)NC(=O)[C@H](C)NC(=O)C(=C)NC(=O)[C@H](C)NC(=O)[C@H]([C@@H](C)CC)N[C@@H]2C=Cc3c([C@H](C)O)cc(nc3[C@H]2O)C(=O)O[C@@H]4C)n1)C(N)=O` [Thiostrepton] was tested. Which Z-score did it give?
The Z-score was 13.9158.

Which Z-score does the source give for `CCCCCCCCCCCCCCCC[N+](C)(C)CCN(Cc1ccc(OC)cc1)c1ncccn1` [Thonzonium bromide] here?
The Z-score was 2.814.

With `N[C@@H](Cc1cc(I)c(Oc2cc(I)c(O)c(I)c2)c(I)c1)C(=O)O` [Thyroxine (L)] as the compound, how does the Z-score read?
Its Z-score is 0.1955.

How did the Z-score turn out when `c1ccc2[nH]c(-c3cscn3)nc2c1` [Tiabendazole] was run?
Its Z-score is −0.3752.

Source: patent publication US9393221B2, “Methods and compounds for reducing intracellular lipid storage” (THE GENERAL HOSPITAL CORPORATION, priority 2011, dated 2016)
